The results in this text go back to patent publication US20250034620A1 (priority 2022, published 2025).

“And” between values parts separate entries of the source, which are not always exact repeats. Equal values may be shown once.

The test deals with H.c.LSU group II intron. Format: biochemical, Histoplasma capsulatum. Particulars: logistic fit of kobs against 14 inhibitor concentrations, 5 nM to 300 μM; MB18 readout; 37° C.; read-out: KI (inhibition constant) of the self-splicing reaction.

By Ki is commonly meant the equilibrium dissociation constant of an inhibitor or competing ligand from its target. With `O=C1c2c(O)ccc(O)c2C(=O)c2c(NCCNCCO)ccc(NCCNCCO)c21` [mitoxantrone], the Ki is 1.79 µM and 2.24 µM.
